# Experimental data from patent publication US9480750B2, “Preparation of antibody or an antibody fragment targeted immunoliposomes for systemic administration of therapeutic or diagnostic agents and uses thereof” (GEORGETOWN UNIVERSITY, priority 1999, dated 2016).
# Counter-ions that a name gives are not always drawn. Like-named read-outs stand apart in the source and are kept apart here.
# Assays:
# [1] = tested on: cleaved caspase-3; test: Western blot of cleaved caspase-3 from mice serum; type: in vivo, C57BL/6 mice; settings: CDDP alone
# Description: The blood collected from the retroorbital sinus of mice was centrifuged at 1,000 rpm for 10 minutes at room temperature after coagulation at room temperature for 1 hr. The serum was transferred to a new tube and centrifuged again at 10,000 g for 20 minutes. The supernatant serum was purified using a P-30 Micro-Bio-Spin Chromatography Column (BIORAD, Hercules, Calif.). Fifteen microliters of the fractions was loaded on a 4% to 12% gradient NuPAGE gel (Invitrogen Life Technologies, Carlsbad, Calif.) and run until the 10 kDa protein marker has run off the gel (approximately 1.5 to 2 hours). After electrophoresis, the proteins were transferred onto a Protran BA 85 nitrocellulose transfer membrane (Schleicher and Schuell, BioScience, Keene, N. H.). Finally, a Western blot analysis for cleaved caspase-3 was performed with cleaved caspase-3 (17 kD) antibody. To block nonspecific binding, the membrane was incubated at room temperature for 1 hour with 5% nonfat dry milk in 10 mM Tris-HCl buffer, pH 8.0, containing 150 mM NaCl and 0.05% Tween 20 (TBST). […] The protein was detected using goat antirabbit secondary antibody (Jackson ImmunoResearch Laboratories, West Grove, Pa.), ECL Western blotting detection reagent, and Hyperfilm ECL (Amersham, Piscataway, N.J.).
# [2] = tested on: DU145 human prostate cancer cells; test: In vitro chemosensitization, XTT; type: cell-based
# [3] = tested on: MDA-MB-435 human melanoma cells; test: In vitro chemosensitization, XTT; type: cell-based
# [4] = tested on: normal skin fibroblast cell line H500
# [5] = administered orally; cited from earlier work
# [6] = cited from earlier work
# [7] = TARCEVA plus gemcitabine; cited from earlier work
# [8] = tested on: Panc I subcutaneous xenograft tumors; test: In vivo chemosensitization of pancreatic xenograft; parameters: species or system mice; settings: GEMZAR alone, intraperitoneally
# Description: To show the universality of this delivery system two different human xenograft mouse tumor models (pancreatic cancer and breast cancer) were employed. In the first (FIG. 10A) Panc I subcutaneous xenograft tumors were induced in female athymic nude (NCR nu/nu) mice. When the tumors were 100-200 mm^3 in size the animals were injected with the chemotherapeutic agent GEMZAR® (intraperitoneally) and with […]-2 prepared by the method of this invention (I.V.). […] In addition to the I.V. injections the complex described above also was intratumorally injected. One group of animals received GEMZAR® only and a second control group received GEMZAR® plus the complex carrying empty vector.
# [9] = tested on: advanced NSCLC; settings: previously-treated advanced NSCLC; cited from earlier work
# [10] = tested on: normal human lung fibroblasts IMR-90; test: In vitro chemosensitization of normal cells, XTT; type: cell-based; settings: 2.5 uM Sunitinib malate, FIG. 43A-C
# Description: The above sensitization results with B16/F10 and MDA-MB-435 were dramatically different from the results with normal human lung fibroblasts IMR-90 under the same conditions. […] The ratio of single-chain antibody fragment to liposome in each complex was 1:30 (w:w). […] After 48 hours, XTT assays were performed to assess cell viability in response to treatments. Each point represents the mean of triplicate samples±standard deviation. […] UT=untransfected.
smiles,measurement,setting,value
"[NH2][Pt]([NH2])([Cl])[Cl] [CDDP, cisplatin]",cleaved caspase-3 in serum,[1],only a weak band
"C#Cc1cccc(Nc2ncnc3cc(OCCOC)c(OCCOC)cc23)c1 [Erlotinib, N-(3-ethynylphenyl)-6,7-bis(2-methoxyethoxy)-4-quinazolinamine]",sensitization to Mitoxantrone,[2]; 3.75 uM Erlotinib,does not sensitize the cells to Mitoxantrone
same,sensitization to Mitoxantrone,[2]; 7.5 uM Erlotinib,had no effect on the response to the chemotherapeutic agent
same,sensitization to TAXOTERE,[3]; free Erlotinib,only minimal effect
same,"sensitization to Mitoxantrone, TAXOTERE or Gemcitabine","[4]; 7.5 uM Erlotinib, FIG. 36A-C",no significant increase in sensitization
same,half-lives,[5],~36 h
same,incidence of ILD-like events,[6]; NSCLC single-agent trial,0.8%
same,Grade 3/4 diarrhea,"[6]; monotherapy 150 mg, NSCLC",6%
same,Grade 3/4 rash,"[6]; monotherapy 150 mg, NSCLC",9%
same,"patients discontinuing due to rash or diarrhea, each","[6]; monotherapy 150 mg, NSCLC",1%
same,Diarrhea,[7],48%
same,Rash,[7],69%
same,"dose reductions due to rash and diarrhea, each",[7],two percent
same,study discontinuation due to rash and diarrhea,[7],up to one percent
"Nc1ccn([C@@H]2O[C@H](CO)[C@@H](O)C2(F)F)c(=O)n1 [GEMZAR®, gemcitabine HCl]",tumor growth,[8],not able to significantly inhibit pancreatic tumor growth
"COc1cc2ncnc(Nc3ccc(F)c(Cl)c3)c2cc1OCCCN1CCOCC1 [Geftinib, Gefitinib]",sensitization to TAXOTERE,"[3]; free Geftinib, 15 µM",did not sensitize the cells at all
same,half-lives,[5],~46 h
same,patients achieving tumor shrinkage or stabilization of their tumor,[9],Approximately 50%
Cc1ccc(NC(=O)c2ccc(CN3CCN(C)CC3)cc2)cc1Nc1nccc(-c2cccnc2)n1 [Imatinib Mesylate],sensitization to TAXOTERE,[3]; 20 uM Imatinib Mesylate,does not sensitize the cells
CCN(CC)CCNC(=O)c1c(C)[nH]c(/C=C2\C(=O)Nc3ccc(F)cc32)c1C [Sunitinib malate],sensitization to Mitoxantrone,[2]; 5 μM free Sunitinib malate,only minimal effect on sensitization
same,"sensitization to Mitoxantrone, TAXOTERE or Gemcitabine",[10],no significant increase in sensitization
same,"sensitization to Mitoxantrone, TAXOTERE or Gemcitabine","[4]; 2.5 or 5 uM Sunitinib malate, FIG. 42A-C",no significant increase in sensitization
